Values quoted from earlier work as cited in patent US20090298708A1, “2'-DEOXY-2'-FLUORO-BETA-D-ARABINONUCLEOSIDE 5'-TRIPHOSPHATES AND THEIR USE IN ENZYMATIC NUCLEIC ACID SYNTHESIS” (priority 2006, published 2009).

Target: T1, DNA pol-γ (Homo sapiens, UniProt P54098)
T1 sequence (P54098 1-1239): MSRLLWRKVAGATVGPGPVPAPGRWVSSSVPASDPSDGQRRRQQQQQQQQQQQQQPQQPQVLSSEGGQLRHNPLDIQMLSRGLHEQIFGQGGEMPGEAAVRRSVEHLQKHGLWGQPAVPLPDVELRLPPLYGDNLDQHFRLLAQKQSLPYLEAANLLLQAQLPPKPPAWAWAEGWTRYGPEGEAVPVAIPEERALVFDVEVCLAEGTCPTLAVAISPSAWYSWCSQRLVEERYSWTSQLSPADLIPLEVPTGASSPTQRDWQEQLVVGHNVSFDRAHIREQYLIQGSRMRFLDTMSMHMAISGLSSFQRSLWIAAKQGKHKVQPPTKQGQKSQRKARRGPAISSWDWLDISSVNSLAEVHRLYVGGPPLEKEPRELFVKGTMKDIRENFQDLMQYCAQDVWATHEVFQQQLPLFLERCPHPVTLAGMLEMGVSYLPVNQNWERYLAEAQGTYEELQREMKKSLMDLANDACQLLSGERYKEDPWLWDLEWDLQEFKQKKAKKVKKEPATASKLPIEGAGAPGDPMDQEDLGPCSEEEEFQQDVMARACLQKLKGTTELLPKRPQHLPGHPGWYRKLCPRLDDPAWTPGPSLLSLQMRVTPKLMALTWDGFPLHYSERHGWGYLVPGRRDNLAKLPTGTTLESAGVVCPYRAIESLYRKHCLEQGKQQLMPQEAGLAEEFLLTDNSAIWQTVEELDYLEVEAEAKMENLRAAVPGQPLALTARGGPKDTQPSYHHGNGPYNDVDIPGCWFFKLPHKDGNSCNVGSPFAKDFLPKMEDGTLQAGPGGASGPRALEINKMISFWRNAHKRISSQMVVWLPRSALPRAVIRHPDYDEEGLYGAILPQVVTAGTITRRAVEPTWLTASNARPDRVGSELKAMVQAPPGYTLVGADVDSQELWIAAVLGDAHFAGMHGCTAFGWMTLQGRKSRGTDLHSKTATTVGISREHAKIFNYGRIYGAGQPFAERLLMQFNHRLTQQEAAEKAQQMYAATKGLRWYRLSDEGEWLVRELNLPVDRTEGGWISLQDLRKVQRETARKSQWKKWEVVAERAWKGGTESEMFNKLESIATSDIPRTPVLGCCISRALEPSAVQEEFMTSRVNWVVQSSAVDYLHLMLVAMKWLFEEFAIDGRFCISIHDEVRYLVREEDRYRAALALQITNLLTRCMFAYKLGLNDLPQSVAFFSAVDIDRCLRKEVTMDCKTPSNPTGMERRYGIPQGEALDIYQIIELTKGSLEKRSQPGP
Conditions: Lewis W. et al. (1994) Biochemistry, 33, 14620-14624; read-out: inhibition constant (Ki) with DNA pol-γ; cited from earlier work

For `O=c1[nH]c(=O)n(C2OC(COP(=O)(O)OP(=O)(O)OP(=O)(O)O)C(O)C2F)cc1I` (stereo not shown) [FIAU 5′-TP], the Ki is given as 40 nM.
